Source: EP4717275A1, “ANTI-LUNG CANCER COMBINED DRUG AND USE THEREOF” (Gunagdong Yinzhu Pharmaceutical Technology Co., Ltd, priority 2023, dated 2024)
Values joined by “and” are separate entries in the source; they are usually repeats but may differ in a detail not shown here. Equal values may be shown once. Read-outs that look alike come from different tables or passages of the source. Marks after values point to notes of the source that are not given here.

What was measured:
[1] = system: human lung cancer NCI-H2228 xenografts; assay: Therapeutic effect in vivo on NCI-H2228 xenografts in nude mice; design: species or system BALB/c Nude mice; settings: PO
Protocol: (§1) BALB/c Nude mice, female, 8-10 weeks old, 18-20g. The variation of the body weight is ±20% around average body weight. 80 mice were inoculated and 60 mice were grouped.
Table 9 Experimental design of therapeutic effect of the drugs in vivo
NCI-H2228 cells were cultured in RPMI 1640 medium supplemented with 10% FBS and maintained in a 37°C, 5% CO2 humidified incubator.
Log-phase NCI-H2228 cells were harvested, resuspended in RPMI 1640 basal medium containing 50% Matrigel, and adjusted to a concentration of 2 × 10^7 cells/mL. Under aseptic conditions, 0.1 mL of the cell suspension was injected subcutaneously into the right flank of mice at a concentration of 2 × 10^6 cells/0.1 mL/mouse.
When the mean tumor volume reached approximately 150 mm^3, animals were randomly grouped based on tumor volume, ensuring inter-group tumor volume variation was less than 10% of the mean.
(§2) The grouping day was designated as Day 0, and administration commenced according to animal body weight.
(§3) The same as the therapeutic effect evaluation experiments for Examples 1-2 and Comparative Examples 1-3.

NCI-H2228 cell = assay: CCK8 proliferation assay with combination index analysis; type: cell-based, human; settings: Alectinib alone
Protocol: CCK8 method was used to evaluate the effect of the drugs towards proliferation of lung cancer cell line (NCI-H2228 cell). The cellular viability with different concentration of drug was assayed and the 50% inhibitory concentration was calculated.
Emerge NCI-H2228 cells (purchased from American Type Culture Collection (ATCC, Manassas, VA, USA)) from liquid nitrogen and thaw in a 37°C water bath. After thawing, culture cells in 1640 medium.
When cell density reached 90% confluence in culture medium, cells were digested with 0.25% trypsin and resuspended. After cell growth stabilized, cells in the logarithmic growth phase were harvested and counted using a cell counter and it was ensured that viability exceeded 85% for all cell lines.
Adjust cell concentration by diluting with culture medium. Add 100 µL of cell suspension to a 96-well plate to achieve a density of 3000 cells/well. Add 100 µL of PBS buffer to the wells around the cell-seeded wells.
Incubate the 96-well plate at 37°C, 5% CO2, and 95% humidity overnight.
Remove the cell culture plate from the incubator, aspirate the culture medium, and add the prepared drug-containing medium. Incubate at 37°C, 5% CO2, and 95% humidity for 72 hours.
Add 10 µL of CCK-8 solution to each well of the 96-well plate. Incubate the plate in the cell culture incubator for 1.5 hours. Measure the absorbance at 450 nm using a microplate reader.
Analyze data using GraphPad Prism 5.0 software. Fit the data using nonlinear S-curve regression to generate a dose-response curve and calculate the IC50 value. [formula]
The analysis of the combination index of the compound was performed using the median effect principle. The formula for the combination index of two compounds is: CI = (D)1/(Dx)1 + (D)2/(Dx)2 [formula]
Where: • (D)1---- The concentration of Compound 1 when compound 1 was used with another compound and the effect X was generated; • (D)2---- The concentration of Compound 2 when compound 2 was used with another compound and the effect X was generated; • (Dx)1---- The concentration of Compound 1 when compound 1 was used alone and the effect X was generated; • (Dx)2---- The concentration of Compound 2 when compound 2 was used alone and the effect X was generated.
The CI value enables quantitative assessment of the nature and strength of interactions between different compounds (Table 2). Interaction strength is measured using the weighted average CI (CIwt), calculated by the formula: CIwt = (CI50+2CI75+3CI90+4CI95)/10 [formula]
Where: • CI50 ---- CI value at EC50 (concentration achieving 50% effect) • CI75, CI90, and CI95 follow the same principle, representing the CI values at EC75, EC90, and EC95, respectively.
Evaluation of the combination effect: CI value is used to evaluate the combination effect, and the judgment method is shown in Table 7. Table 7 Judgment criteria of the results

[2] = Animal body weight, fatality and toxicity observation in the NCI-H2228 xenograft study; type: in vivo, BALB/c Nude mice
Text: as §1, §2, §3

[3] = system: human lung cancer NCI-H1975 xenografts; assay: Therapeutic effect in vivo on NCI-H1975 xenografts in nude mice; design: species or system BALB/c Nude mice; settings: PO
Protocol: BALB/c Nude mice, female, 8-10 weeks old, 18-20g. […] Table 2 Experimental design of therapeutic effect of the drugs in vivo […] NCI-H1975 cells were cultured in RPMI 1640 medium supplemented with 10% FBS and maintained in a 37°C, 5% CO2 humidified incubator. Log-phase NCI-H1975 cells were harvested, resuspended in RPMI 1640 basal medium containing 50% Matrigel, and adjusted to a concentration of 2 × 10^7 cells/mL. Under aseptic conditions, 0.1 mL of the cell suspension was injected subcutaneously into the right flank of mice at a concentration of 2 × 10^6 cells/0.1 mL/mouse. […] The grouping day was designated as Day 0, and administration commenced according to animal body weight. […] Animal body weight and tumor volume were measured twice weekly throughout the experiment. Tumor length and width were measured using a digital caliper, with tumor volume estimated from these measurements. After the final weighing on Day 21, remaining animals were euthanized with CO2. Tumors were weighed, photographed, and the experiment concluded. […] Tumor growth inhibition rate (%TGITV) is calculated as: […] Relative Tumor Volume (RTV) is calculated as Vt/V0, where V0 is the tumor volume at grouping and Vt is the tumor volume at each measurement. Relative Tumor Growth Rate (%T/CRTV) is calculated as TRTV/CRTV × 100%, where TRTV is the RTV of the treatment group and CRTV is the RTV of the negative control group. Tumor growth inhibition rate (%TGITW) is calculated as: ([…] × 100%, where TWc is the average tumor weight in the negative control group and TWT is the average tumor weight in the treatment group. […] Drug-related animal mortality exceeding 20% indicates severe toxicity at that dose. All experimental data in this study are expressed as Mean ± SEM. The evaluation of the combination index (CI) of drugs relies on the following equation: […]), wherein E(A+B) is the inhibition rate of combination drug, EA and EB is the inhibition rate of drug A and drug B respectively. E(A+B) in the equation represents 'measured synergistic effect' and (EA+EB-EA×EB) is 'expected synergistic effect'. CI=0.85-1.15 indicates a mere addition of the effect of two drugs, >1.15 indicates enhancement (or synergy), and <0.85 indicates antagonism. • Combination index of tumor growth inhibition: CAI, 40mg/kg + AZD9291, 1mg/kg: 1.27; […] CAI, 40mg/kg + AZD9291, 1mg/kg: 1.20; […]

[4] = type: in vivo
Protocol: as §1, §2
Animal body weight and tumor volume were measured twice weekly throughout the experiment. Tumor length and width were measured using a digital caliper, with tumor volume estimated from these measurements.
Clinical observations were recorded daily to assess overall health status, weight abnormalities, behavioral changes, and other treatment-related adverse reactions.
In accordance with animal welfare regulations, animals meeting any of the following criteria during the study were removed from the experimental group and euthanized: 1. Body weight loss exceeding 20% compared to Day 0 (BWL ≥ 20%); 2. Severe adverse reactions such as blindness or paralysis; 3. Tumor volume exceeding 2000 mm^3; 4.
The animal body weight change rate (%BWC) is calculated as: (BWt - BW0) / BW0 × 100%, where BWt is the animal body weight at each measurement and BW0 is the animal body weight at grouping.
According to China's NMPA Technical Guidance Principles for Non-clinical Studies of Cytotoxic Antineoplastic Drugs (November 2006), %T/CRTV ≤ 40% and statistically significant P < 0.05 indicate efficacy. Drug-related animal mortality exceeding 20% indicates severe toxicity at that dose.
All experimental data in this study are expressed as Mean ± SEM.

[5] = %TGITV from tumor volume vs control, QD×21
[6] = %TGITW from tumor weight vs control, QD×21

In the case of `CCc1cc2c(cc1N1CCC(N3CCOCC3)CC1)C(C)(C)c1[nH]c3cc(C#N)ccc3c1C2=O` [Alectinib], the “Relative tumor proliferation rate(%) Day 21” value ([1]; %T/CRTV, QD×21) is reported as 59.77%, the “Tumor growth inhibition rate(%) Day 21” value [1, 5] is reported as 41.23% and the “Tumor inhibition rate(%) Day 21” value [1, 6] is reported as 49.14%. The “Tumor volume (mm^3,Mean±SEM) Day 21” value ([1]; QD×21, dose per group) was 863.95± 98.37* mm^3, the “Tumor weight (g,Mean±SEM) Day 21” value ([1]; QD×21, listed as Comparative Example 4) was 0.444 ± 0.049 g and the “Relative tumor volume Day 21” value ([1]; RTV = Vt/V0, Mean ± SEM, QD×21) was 5.23± 0.32. For the same molecule, the IC50 (NCI-H2228 cell; single plates 1-3, 72 hours, read-out: IC50 (Alectinib)) was 471 nM and 546 nM, the IC50 (NCI-H2228 cell; Homo sapiens, NCI-H2228, 72 h, average of 3 plates, read-out: IC50 (Alectinib)) was 527 nM and the IC50 (NCI-H2228 cell; Homo sapiens, NCI-H2228, 72 h, single plates 1-3, read-out: IC50 (Alectinib)) was 563 nM. For the same molecule, the Fatality ([2]; dead/total animals at Day 21, NCI-H2228 study, PO, QD×21) was 0/10 (Day 21), the “inhibitory effect on animal weight gain” value ([2]; mouse, in vivo) was “slight inhibition effect on animal body weight” and the “Average body weight (g, Mean ± SEM) Day 0” value ([2]; mouse, in vivo, po) was 22.48 ± 0.33 g. The “Average body weight (g, Mean ± SEM) Day 21” value ([2]; mouse, in vivo, po) was 22.20 ± 0.41 g, the “Body weight change Day 21 vs Day 0 (g, in brackets)” value ([2]; mouse, in vivo, po) was -0.28 g and the “Body weight change rate Day 21 vs Day 0” value ([2]; mouse, in vivo, po) was -1.13%.

For `C=CC(=O)Nc1cc(Nc2nccc(-c3cn(C)c4ccccc34)n2)c(OC)cc1N(C)CCN(C)C` [Comparative Example 1, osimertinib], the “Relative tumor proliferation rate(%) Day 21” value ([3]; %T/CRTV, QD×21) was 81.08%, the “Tumor growth inhibition rate(%) Day 21” value [3, 5] was 21.02% and the “Tumor inhibition rate(%) Day 21” value [3, 6] was 14.73%. The “Tumor weight (g,Mean±SEM) Day 21” value ([3]; QD×21) was 1.401 ± 0.212 g, the “Tumor volume (mm^3,Mean±SEM) Day 21” value ([3]; QD×21, dose per group) was 1394.40 ±181.52 mm^3 and the “Relative tumor volume Day 21” value ([3]; RTV = Vt/V0, Mean ± SEM, QD×21) was 8.74 ± 0.73. For the same molecule, the Fatality ([4]; dead/total animals at Day 21, NCI-H1975 study, PO, QD×21) was 0/10 (Day 21), the “Average body weight (g, Mean ± SEM) Day 0” value ([4]; mouse, in vivo, po) was 19.47 ± 0.28 g and the “Average body weight (g, Mean ± SEM) Day 21” value ([4]; mouse, in vivo, po) was 21.46 ± 0.42 g. For the same molecule, the “Body weight change Day 21 vs Day 0 (g, in brackets)” value ([4]; mouse, in vivo, po) was 1.99 g and the “Body weight change rate Day 21 vs Day 0” value ([4]; mouse, in vivo, po) was 10.15%.
